Test results published in patent US8314140B2, “4-hydroxythiobenzamide derivatives of drugs” (Antibe Therapeutics Inc., priority 2006, dated 2012).
“Also recorded” adds a separate entry of the source.

Legend:
human platelet cAMP = test: Human platelet cAMP concentrations; assay type: cell-based; details: 3-100 μM, 10 minutes, IBMX 0.5 mM; versus vehicle; FIG. 21
Experimental: Platelet-rich plasma (PRP) was prepared as above. Aliquots of 400 μL of PRP were placed in glass tubes which contained IBMX (isobutyl-1-methylxanthine; 0.5 mM), an non-selective phosphodiesterase inhibitor. […] As a positive control, some aliquots of platelets were treated with forskolin (10 μM), a known stimulus of adenylate cyclase. Ten minutes later, the samples of PRP were centrifuged at 9,000 g for 2 min and the supernatant was discarded. The pellet was resuspended in buffer, sonicated for 2 min, then cAMP concentrations were determined using a specific enzyme-linked immunosorbent assay (Cayman Chemical Co., Ann Arbor, Mich., USA). Experiments were repeated 4-6 times for each concentration of each drug.

gastric damage [1] = test: Incidence of gastric damage at end of the leukocyte adherence experiment
Text: (§1) Briefly, post-capillary mesenteric venules in anestheitized rats are examined under a light microscope.

gastric ulcers = test: Healing of acetic acid-induced gastric ulcers; assay type: in vivo, rat; details: oral twice-daily for 4 days; 30 μmol/kg (naproxen, Compound XX 60 μmol/kg); FIG. 17
Experimental: Gastric ulcers were induced via serosal application of acetic acid, as described by Elliott et al., A nitric oxide-releasing nonsteroidal anti-inflammatory drug accelerates gastric ulcer healing in rats. […] After 4 days of such treatment, the rats were euthanized and the stomach was excised and photographed. The area (in mm^2) of the ulcer was determined planimetrically by an individual unaware of the treatments given to the rats.

[2] = test system: leukocyte adherence to the vascular endothelium; test: Leukocyte adherence after NSAID or derivative, intravital microscopy (Example 21); assay type: in vivo, rat; details: comment on Table 2
Text: as §1

[3] = test system: carrageenan-induced paw edema; test: Carrageenan hindpaw edema model; assay type: in vivo, rat; details: oral 30 min prior to carrageenan; diclofenac 1, 3 or 10 mg/kg; Compound XVII equimolar to diclofenac 3 mg/kg; FIG. 14
Experimental: Male, Wistar rats weighing 175-200 g were given the test compounds orally 30 min prior to subplantar injection of 100 ul of 1% lambda carrageenan.

gastric damage [4] = test: Gastric damage score 3 h after oral dosing; assay type: in vivo, rat; details: oral, 3 h; diclofenac 20 mg/kg or equimolar doses (Compound XVII 27.3 mg/kg, TBZ 7.3 mg/kg); FIG. 8
Text: There were 5 rats in each group.
(§2) Each group consisted of 5 rats.

[5] = H2S generation in buffer and liver homogenate (Example 24); assay type: in vitro ADME; details: 1 mM, FIG. 19
Experimental: Two ml of an assay reaction mixture was introduced in to ice-cold 250 μl of NaOH 0.1 N in a sealed 3-neck reactor. […] Incubations were lead with or without presence of 10% (w/v) liver homogenate and 2 mM pyridoxal 5′-phosphate. A constant stream of nitrogen was passed through the mixture via a gas-inlet capillary. […] Khan et al., 1980). Reactions were initiated by transferring the tube from ice bath to a 37° C. water bath. The stream of nitrogen carried the sulfide acid in the second reactor containing 2 ml of SAOB as described previously. After incubating at 37° C. for 90 minutes, 1 ml of 50% trichloroacetic acid solution was added to mixture to stop the reaction. […] The concentration of sulfide in SAOB solution was measured with a sulfide sensitive electrode as previously described (Ubuka, 2002; Khan et al., 1980).

visceral pain perception = test: Rat model of visceral pain perception (colorectal distension, AWR score); assay type: in vivo; details: 0.8 mL colorectal distention; glibenclamide 10 mg/kg i.p. 30 min before; FIG. 3
Experimental: A rat model of visceral pain perception, a pre-clinical model of irritable bowel syndrome, was used in the following example. Rats (male, Wistar, 200-250 g, obtained from Charles River, Monza, Italy), were housed in plastic cages and maintained under controlled conditions with 12-hours light/dark cycle with lights on at 7.00 AM. Tap water and standard laboratory chow were freely available. Before experiments, rats were individually trained by spending 2-3 hours per day in a plexiglass cage for 2-3 days. It allowed them to adjust to a movement-restriction environment. Food was withheld for 12 hours before colorectal distension (CRD) recording were performed. Experiments were performed in awake rats and were conducted in a blind manner in that the observer was not aware of the identity of drug administered to each animal.
In the testing day, rats were sedated with ether inhalation and a 2 cm long latex balloon was inserted intrarectally 2 cm from the anal verge and fixed at the base of the tail. The balloon was connected via a double-barreled cannula to a pressure transducer to continuously monitoring the rectal pressure by a computer (PowerLab PC, A.D. Instruments, Milford, Mass., USA) and to a syringe for inflation/deflation of the balloon. The rats were then housed in a small cage (20×8×8 cm) on an elevated Plexiglas™ platform and allowed to wake up and adapt for 1 hour. After recovery from sedation, animals underwent the CRD procedure and behavioral responses were tested. The night before the experiments, the balloons were inflated and left overnight so the latex stretched and the balloons became compliant.
CRD of 20 seconds, performed every 5 minutes, was applied in increment of 0.4 ml starting from 0.4 ml up to 1.6 ml water. To achieve an accurate measurement of the colonic parameters and perception, the distensions were repeated twice for each intensity and data for each animal were averaged for analysis. Each animal underwent a double set of CRD. Twenty minutes after the first sequence of CRD (0.4 mL-1.6 ml water), drugs were administered intraperitoneally (i.p.) and a second set of CRD was performed. Behavioral responses during the first and the second set of CRD were assessed and compared.
Behavioral response to CRD was assessed by measuring the abdominal withdrawal reflex (AWR) using a semiquantitative score (1).
A rat model of visceral pain perception as described above was used to compare pain perception scores for 5-amino-2-(4-thiocarbamoyl-phenoxycarbonyloxy)-benzoic acid (Compound XXVII) with or without glibenclamide, an inhibitor of ATP-sensitive K^+ (KATP) channels.
Experiments were carried out as described in Example 13, except that groups of 5 rats each were treated with vehicle, trimebutine maleate (10 mg/kg), or with equimolar doses of trimebutine thiocarbamoylbenzoate (Compound III) or thiocarbamolybenzoate alone.

[6] = patients after usual doses; Dig. Dis. Sci. 1989; 34: 573-578; cited from earlier work
[7] = hypertensive rats, 60 μmol/kg intraperitoneal bolus, 60 minutes; FIG. 18
COX-2 = biological target: T1, COX-2 (Rattus norvegicus, UniProt P35355); test: Rat airpouch assay, exudate PGE2 after zymosan; assay type: in vivo; details: 60 μmol/kg; versus vehicle; FIG. 15
T1 construct: from tissue; host or cells: rat subcutaneous airpouch exudate, in vivo, zymosan-induced
T1 sequence (P35355 18-604): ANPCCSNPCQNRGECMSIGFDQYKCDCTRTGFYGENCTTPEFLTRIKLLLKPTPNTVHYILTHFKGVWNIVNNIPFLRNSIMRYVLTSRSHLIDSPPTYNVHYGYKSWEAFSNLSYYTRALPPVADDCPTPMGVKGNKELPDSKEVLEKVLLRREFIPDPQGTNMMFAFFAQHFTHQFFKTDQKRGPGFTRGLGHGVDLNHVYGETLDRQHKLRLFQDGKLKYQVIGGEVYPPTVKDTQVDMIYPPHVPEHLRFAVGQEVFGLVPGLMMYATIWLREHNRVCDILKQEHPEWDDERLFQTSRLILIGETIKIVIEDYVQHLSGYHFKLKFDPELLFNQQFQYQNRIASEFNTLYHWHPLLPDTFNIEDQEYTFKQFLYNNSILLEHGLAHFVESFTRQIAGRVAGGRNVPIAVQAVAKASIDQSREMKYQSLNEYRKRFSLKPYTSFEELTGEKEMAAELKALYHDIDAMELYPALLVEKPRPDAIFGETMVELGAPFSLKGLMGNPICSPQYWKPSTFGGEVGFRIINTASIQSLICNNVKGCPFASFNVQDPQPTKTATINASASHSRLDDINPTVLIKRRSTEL
Experimental: Briefly, a subcutaneous “pouch” is created by repeated injections of air over several days. Once established, inflammation in the pouch can be induced by injection of 1 mL of 1% zymosan. […] Another group of 5 rats was treated with the vehicle, but received an injection of 0.9% sterile saline into the pouch rather than zymosan.
as §2

CCC(C)(C)C(=O)O[C@H]1C[C@@H](C)C=C2C=C[C@H](C)[C@H](CC[C@H]3C[C@H](OC(=O)CCC(=O)Oc4ccc(C(N)=S)cc4)CC(=O)O3)[C@H]21 [Compound I, Succinic acid 2-{2-[8-(2,2-dimethyl-butyryloxy)-2,6-dimethyl-1,2,6,7,8,8a-hexahydro-naphthalen-1-yl]-ethyl}-6-oxo-tetrahydro-pyran-4-yl ester 4-thiocarbamoyl-phenyl ester]
platelet cAMP (human platelet cAMP): significant increase in platelet cAMP at concentrations of 10, 30 and 100 μM

NC(=S)c1ccc(OC(=O)Cc2ccccc2Nc2c(Cl)cccc2Cl)cc1 [Compound XVII, [2-(2,6-dichloro-phenylamino)-phenyl]-acetic acid 4-thiocarbamoyl-phenyl ester]
percent incidence of gastric damage compared to the parent drug alone (gastric damage [1]; comment on Table 2): significantly reduced the percent incidence of gastric damage | Percent Incidence of Gastric Damage (gastric damage [1]; intragastric 30 μmol/kg (naproxen and Compound XX 60 μmol/kg), end of experiment): 20% | gastric ulcer healing (ulcer surface area) (gastric ulcers): significantly greater healing | number of adherent leukocytes compared to the parent drug alone [2]: significantly reduced the number of adherent leukocytes | paw edema (paw volume increase) [3]: reduced paw edema to a greater extent; also recorded: comparable to the effect of diclofenac at a dose of 10 mg/kg | gastric damage score (gastric damage [4]): no gastric damage; also recorded: significantly less gastric damage than diclofenac | melting point: 170 to 172 °C | H2S generated in liver homogenate ([5]; 10% (w/v) liver homogenate): greater release of H2S from Compound XVII than from TBZ | H2S generated in buffer ([5]; potassium phosphate buffer pH 7.4): significantly more release of H2S than an equivalent amount of TBZ

Nc1ccc(O)c(C(=O)O)c1 [mesalamine, reference compound]
pain perception score after glibenclamide pretreatment (visceral pain perception): did not affect the pain perception | concentration in the colonic lumen [6]: up to 5 mM

COc1ccc2cc([C@H](C)C(=O)O)ccc2c1 [naproxen]
increase in systolic blood pressure [7]: substantial increase in systolic blood pressure | exudate PGE2 in the pouch (COX-2 activity) (COX-2): significantly suppressed COX-2 activity
